Measurements published in ChEMBL document CHEMBL1201862, “PubChem BioAssay data set” (2004).
Active and inactive are the calls of the source.

What was measured:
[1] = molecular target: Disintegrin and metalloproteinase domain-containing protein 17 (Homo sapiens, UniProt P78536); experiment: inhibition of ADAM17 substrate cleavage – biochemical, quenched FRET substrate, counter-screen for ADAM10 exosite inhibitor project, dose response (AID 743253)
[2] = potency of ADAM10 substrate cleavage blockers – biochemical, QFRET, dose response (AID 743254);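 also: ADAM10 enzyme with the DM2 quenched FRET peptide as substrate; EDANS fluorescence gain as the protease cuts the substrate; inhibitor potency against ADAM10 proteolytic activity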
[3] = Luminescence Cell-Based Dose Retest to Confirm Inhibitors of Cancer Stem Cells. [Related pubchem assays (depositor defined):AID2717, AID2721]; format: functional; details: Homo sapiens
[4] = molecular target: T1, Fructose-bisphosphate aldolase (Mycobacterium tuberculosis, UniProt P9WQA3); experiment: Fluorescence-based biochemical high throughput dose response assay for inhibitors of the fructose-bisphosphate aldolase (FBA) of M. tuberculosis.; format: functional
T1 sequence (P9WQA3 whole entry): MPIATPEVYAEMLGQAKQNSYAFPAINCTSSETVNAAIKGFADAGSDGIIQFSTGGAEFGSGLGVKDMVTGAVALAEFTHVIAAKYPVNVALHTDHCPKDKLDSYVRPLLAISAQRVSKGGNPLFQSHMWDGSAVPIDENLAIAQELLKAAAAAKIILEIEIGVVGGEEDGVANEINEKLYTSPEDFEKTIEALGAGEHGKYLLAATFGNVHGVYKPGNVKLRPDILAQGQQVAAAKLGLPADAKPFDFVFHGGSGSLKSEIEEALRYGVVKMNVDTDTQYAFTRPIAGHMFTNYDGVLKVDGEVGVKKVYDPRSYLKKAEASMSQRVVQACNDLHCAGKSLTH

[5] = viability of PTEN-deleted HCT116 cells – cell-based, HCT116 PTEN knockout, dose response (AID 1047); format: functional;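 also: HCT116 colon tumor cells with PTEN knocked out; cells exposed to compound for 60 hours before readout; potency for loss of cell viability measured by luminescence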
[6] = viability of HCT116 lacking mutant beta-catenin – cell-based, human colon tumor, dose response (AID 1045); format: functional;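 also: HCT116 colon tumor cells with beta catenin knocked out; cells exposed to compound for 60 hours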
[7] = molecular target: Glyceraldehyde-3-phosphate dehydrogenase (Homo sapiens, UniProt P04406)
[8] = molecular target: T2, Alkaline phosphatase, tissue-nonspecific isozyme (Homo sapiens, UniProt P05186); experiment: potency against alkaline phosphatase TNAP – biochemical, luminescent, dose response, SAR follow-up (AID 1056)
T2 sequence (P05186 whole entry): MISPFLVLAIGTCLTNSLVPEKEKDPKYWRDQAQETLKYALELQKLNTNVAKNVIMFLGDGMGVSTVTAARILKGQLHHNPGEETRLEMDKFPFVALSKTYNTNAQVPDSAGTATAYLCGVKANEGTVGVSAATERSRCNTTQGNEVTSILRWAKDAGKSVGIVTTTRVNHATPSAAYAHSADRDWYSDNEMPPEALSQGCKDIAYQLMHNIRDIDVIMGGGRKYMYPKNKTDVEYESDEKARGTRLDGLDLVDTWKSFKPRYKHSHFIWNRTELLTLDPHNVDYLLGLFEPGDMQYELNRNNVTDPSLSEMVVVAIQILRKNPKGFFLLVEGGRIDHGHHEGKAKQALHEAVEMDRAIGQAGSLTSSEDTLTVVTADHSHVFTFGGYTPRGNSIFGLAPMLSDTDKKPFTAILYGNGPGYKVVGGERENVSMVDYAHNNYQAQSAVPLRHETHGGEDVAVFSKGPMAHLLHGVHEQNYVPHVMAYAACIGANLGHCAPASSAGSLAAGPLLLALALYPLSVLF

[9] = molecular target: T3, Zinc finger protein mex-5 (Caenorhabditis elegans, UniProt Q9XUB2); experiment: potency of MEX-5 RNA-binding blockers – biochemical, C. elegans, fluorescence polarization, dose response (AID 1960)
T3 sequence (Q9XUB2 whole entry): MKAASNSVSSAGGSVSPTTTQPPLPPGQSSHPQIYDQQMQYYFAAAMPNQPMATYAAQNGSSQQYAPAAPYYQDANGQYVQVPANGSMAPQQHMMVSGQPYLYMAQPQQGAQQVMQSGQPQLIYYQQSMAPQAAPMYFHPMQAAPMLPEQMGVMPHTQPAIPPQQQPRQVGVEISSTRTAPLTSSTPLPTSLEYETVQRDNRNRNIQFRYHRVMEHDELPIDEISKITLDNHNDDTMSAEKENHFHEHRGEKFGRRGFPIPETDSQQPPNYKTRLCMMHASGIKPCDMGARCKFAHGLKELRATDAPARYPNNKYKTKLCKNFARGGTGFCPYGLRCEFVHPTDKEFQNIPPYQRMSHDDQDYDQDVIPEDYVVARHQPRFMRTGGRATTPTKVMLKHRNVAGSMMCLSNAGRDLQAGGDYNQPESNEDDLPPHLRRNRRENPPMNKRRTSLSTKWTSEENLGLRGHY

Major prion protein = Major prion protein (Homo sapiens, UniProt P04156); format: functional, cell-based
[10] = molecular target: T4, RNA-binding protein pos-1 (Caenorhabditis elegans, UniProt G5EF15); experiment: disruptors of C. elegans POS-1 RNA interaction – biochemical, fluorescence polarization, dose response (AID 1964);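 also: purified POS-1 fused to maltose binding protein made in E. coli; potency of compounds blocking POS-1 binding to fluorescent RNA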
T4 sequence (G5EF15 whole entry): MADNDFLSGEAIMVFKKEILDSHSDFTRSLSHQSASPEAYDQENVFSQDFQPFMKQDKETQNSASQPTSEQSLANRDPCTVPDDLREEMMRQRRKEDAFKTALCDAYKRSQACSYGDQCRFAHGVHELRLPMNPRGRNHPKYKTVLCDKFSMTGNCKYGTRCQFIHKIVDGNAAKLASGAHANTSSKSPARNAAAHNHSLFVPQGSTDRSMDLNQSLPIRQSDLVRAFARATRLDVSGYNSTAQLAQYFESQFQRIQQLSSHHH

cells [11] = experiment: cells
[12] = general cell-killing toxicity readout – plate reader, dry powder samples, cytotoxicity control for PAX8 inhibitor project, dose response (AID 743021); format: functional, cell-based
Paired box protein Pax-8 = Paired box protein Pax-8 (Homo sapiens, UniProt Q06710); experiment: PAX8 transcriptional activity inhibition in RMG-I – RMG-I cells, luciferase, cherry-pick, dose response (AID 687027); format: functional, cell-based;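 also: luciferase reporter driven by Pax8 target thyroperoxidase promoter measured by SteadyGlo luminescence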
[13] = molecular target: T5, Oxysterols receptor LXR-beta (Homo sapiens, UniProt P55055); format: functional, cell-based;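 also: agonist activity at LXR measured by a cell-based luminescence readout across a dose range, run as a counterscreen for daf-12 agonists; HEK293 cells with Gal4-LXR fusion and GAL4-driven luciferase reporter; potency for activation of Gal4-LXR reporter so compounds are agonists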
T5 sequence (P55055 whole entry): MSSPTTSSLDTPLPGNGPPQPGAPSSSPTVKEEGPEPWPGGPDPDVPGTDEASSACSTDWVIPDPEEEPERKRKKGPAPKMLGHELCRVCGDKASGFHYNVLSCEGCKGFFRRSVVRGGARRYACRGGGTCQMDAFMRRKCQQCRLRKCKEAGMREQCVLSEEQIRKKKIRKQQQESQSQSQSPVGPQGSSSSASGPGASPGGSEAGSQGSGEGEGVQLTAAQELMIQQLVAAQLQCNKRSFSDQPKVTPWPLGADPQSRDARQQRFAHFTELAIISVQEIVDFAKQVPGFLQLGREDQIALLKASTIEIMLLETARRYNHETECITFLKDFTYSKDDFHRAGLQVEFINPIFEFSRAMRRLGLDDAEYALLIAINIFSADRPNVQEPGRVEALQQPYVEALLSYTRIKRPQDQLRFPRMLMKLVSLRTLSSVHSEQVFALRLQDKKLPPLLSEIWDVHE

cells [14] = format: functional, cell-based
cells [15] = format: functional, cell-based; remark: listed apart in the source
cells [16] = format: functional, cell-based; remark: listed apart in the source
[17] = molecular target: T6, Nuclear receptor subfamily 0 group B member 1 (Homo sapiens, UniProt P51843); format: functional, cell-based;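 also: HEK293T cells transfected with SF-1 and DAX-1 plus StAR promoter luciferase reporter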
T6 sequence (P51843 whole entry): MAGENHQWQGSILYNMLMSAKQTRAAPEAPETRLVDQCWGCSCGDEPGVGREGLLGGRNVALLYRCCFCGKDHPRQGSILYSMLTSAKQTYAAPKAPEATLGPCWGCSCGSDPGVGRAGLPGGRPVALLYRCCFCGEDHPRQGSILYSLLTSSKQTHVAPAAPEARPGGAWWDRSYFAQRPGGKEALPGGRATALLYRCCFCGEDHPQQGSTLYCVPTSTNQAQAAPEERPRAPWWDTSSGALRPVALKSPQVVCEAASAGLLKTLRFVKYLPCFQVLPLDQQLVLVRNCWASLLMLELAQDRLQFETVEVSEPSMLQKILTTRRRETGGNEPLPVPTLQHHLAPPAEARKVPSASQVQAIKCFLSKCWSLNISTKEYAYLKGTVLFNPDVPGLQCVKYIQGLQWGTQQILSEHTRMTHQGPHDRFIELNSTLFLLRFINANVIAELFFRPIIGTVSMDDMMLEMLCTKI

H4 = experiment: Luminescence Cell-Based Dose Response HTS to Identify Activators of 5'UTR Stem-Loop Driven Prion Protein mRNA Translation in H4 Neuroglioblastoma Cells. [Related pubchem assays: 1829 (Project Summary), 1814 (Primary HTS)]; format: functional; details: Homo sapiens

COc1ccc(-c2c[nH]nc2-c2ccc(OCc3ccccc3)cc2O)cc1OC
IC50 [1]: > 69.5 µM (inactive) | IC50 [2]: > 69.5 µM (inactive)

Cc1cccc(OCCNC(=O)c2cccc(Oc3ccc(C(F)(F)F)cc3[N+](=O)[O-])c2)c1
IC50 [1]: > 69.5 µM (inactive) | IC50 [2]: 27.5 µM (inactive) | AC50 [3]: 23.5 µM (active)

CCOC(=O)c1oc2cccc(OCC(O)CNC(C)C)c2c1C (configuration not stated)
IC50 [4]: 0.843 µM (active) | EC50 [5]: 45.6 µM (active) | EC50 [6]: 47.7 µM (active)

COc1ccc(-c2nnc3oc(O)cc(C)c2-3)cc1
IC50 [7]: > 100 µM (not active) | IC50 [4]: 1.88 µM (active) | IC50 [8]: 1.06 µM (active)

Cc1nnc(S)c2nn(-c3cccc(Cl)c3)c(C)c12
EC50 [9]: 153 µM (active) | IC50 (Major prion protein): 5.53 µM (active) | EC50 [10]: 137 µM (active) | IC50 (cells [11]): > 138 µM (inactive)

Cc1ccc(S(=O)(=O)Nc2ccc3c(c2)CC(=O)N([C@@H](C)CO)C[C@H](C)[C@@H](CN(C)C(=O)Nc2ccc(C(F)(F)F)cc2)O3)cc1
AC50 [12]: 43.1 µM (active) | AC50 (Paired box protein Pax-8): 30.4 µM (active)

CC(=O)CSc1nc(O)c(C#N)c(-c2cccs2)n1
IC50 (cells [11]): > 138 µM (inactive)

Cc1ccc(-c2cn3cccnc3n2)cc1
EC50 [13]: > 67.6 µM (inactive)

Cc1ccc(-c2nc3ccccc3nc2NN)cc1
IC50 [4]: > 10 µM (inactive) | EC50 (cells [14]): 7.52 µM (active) | EC50 (cells [15]): > 350 µM (not active)

CCOC(=O)CSc1nc(CC)nc2ccccc12
IC50 (Major prion protein): 1.08 µM (active) | IC50 (cells [11]): > 138 µM (inactive)

O=C(/N=c1\nc2ccccn2s1)c1ccccc1
IC50 (cells [16]): > 67.5 µM (inactive) | IC50 [17]: > 67.5 µM (inactive) | EC50 (H4): 5.73 µM (active)
